Laboratory results: patent US20230312651A1, “Cyclic Peptide, Peptide Complex, and Drug Composition Containing Said Cyclic Peptide and/or Said Peptide Complex” (The University of Tokyo, priority 2020, published 2023)
“Also recorded” adds a separate entry of the source. Starred links: 1 amine or outer side, 2 acyl side, 3 side chain; linkers in the order of their positions; H or OH if unused. Positions of bridges follow the written chain, without caps; N, C: chain ends. Non-standard residues stand in square brackets, D forms with d. Residues, ends and D or L forms follow the SMILES beside them. Chains are numbered I, II in the order given. NH(CH2CH2O)6CH2CO = O=C(COCCOCCOCCOCCOCCOCCN[*:1])[*:2]; Dap = NC[C@H](N)C(=O)O

Experiments:
[1] = test system: 40 RTKs (receptor tyrosine kinases); assay: Phospho-RTK array evaluation (off-target activity); format: cell-based, mouse; conditions: primary hippocampal neurons (DIV6)
Method: Comprehensive study of the phosphorylated tyrosine kinase receptor was conducted using a phospho-RTK array in accordance with the manufacturer’s protocol (Proteome Profiler mouse Phospho-RTK Array Kit, ARY014, R&D Systems). The phosphorylation level was evaluated by pixel density and quantified by Image J Software.

[2] = test system: primary hippocampal neurons; assay: Immunocytochemistry for evaluation of axonal outgrowth; format: cell-based; conditions: for axonal outgrowth: p<0.01 vs DMSO
Method: The cells were washed twice with 0.1 M phosphate-buffered physiological saline (PBS) and immobilized for 15 minutes with 2% paraformaldehyde (PFA)/4% sucrose (in 0.1 M PBS). After washing three times with PBS, the cells were subjected to permeabilization for 3 minutes with PBS (P\BST) containing 0.2% Triton-X and incubated for one hour with a blocking solution (PBST containing 5% normal goat serum) to prevent non-specific binding. Then, the cells were incubated overnight at 4° C. with a primary antibody diluted with the blocking solution (rabbit anti-Tau polyclonal antibody, 1:1,000 dilution; cat#ab64193 (abcam); mouse anti-MAP2 monoclonal antibody, 1:1,000 dilution, M4403 (Sigma)). After washing of the cells with PBST for 10 minutes was performed four times, they were incubated at room temperature for 2 hours with a fluorescently-labeled secondary antibody diluted with the block solution (Alexa Fluor 488-labeled goat anti-mouse IgG antibody, 1:1,000 dilution, A-11029; Alexa Fluor 568-labeled goat anti-rabbit IgG antibody, 1:1,000 dilution, A-21069 (Thermo Fisher Scientific)).
Next, after washing of the cells with PBST for 10 minutes was performed four times, they were mounted with […] containing DAPI (H-1200 (Vector Laboratories)) and an image was obtained using a Virtual Slide microscope system (VS120 (Olympus)) having a x20 objective lens. The images were analyzed using a neuron J plugin in Image J software and the neurite length tracing and quantification were performed (Meijering, E.; Jacob, M.; Sarria, J. C.; Steiner, P.; Hirling, H.; Unser, M., Design and validation of a tool for neurite tracing and analysis in fluorescence microscopy images. Cytometry A 2004, 58 (2), 167-76.).

mouse TrkB = target: T1, mouse TrkB (Mus musculus, UniProt P15209); assay: Western blot of phosphorylated Trk in primary mouse hippocampal neurons; format: cell-based
T1 construct: induce phosphorylation of mouse TrkB in primary mouse hippocampal neurons; endogenous in cells; host or cells: primary mouse hippocampal neurons (DIV6)
Method: (§1) After washing with 0.1 M PBS twice, cells were lysed in a radio-immunoprecipitation assay (RIPA) buffer containing 50 mM Tris-HCI (pH 7.4), 150 mM NaCl, 2 mM EDTA, 1% Nonidet P-40, 0.5% Na-deoxycholate, 0.1% SDS, 50 mM NaF, 0.2 mM Na3VO4, 10 µg/mL aprotinin, 10 µg/mL leupeptin, and 1 mM phenylmethylsulfonyl fluoride on ice for 30 minutes. After ultrasonic treatment and centrifugation at 20,000 ×g for 30 minutes, the supernatant was subjected to SDS-PAGE. Protein amount was quantified using Bicinchoninic Acid Kit (BCA-1, Sigma).
The cell lysate (protein amount: 20 µg in P-TrkB, 10 µg in TrkB, and 5 µg in Akt and Erk) was separated using 8% polyacrylamide gel and transferred to a polyvinylidene difluoride membrane (Merck Millipore, Massachusetts, USA). The resulting membrane was blocked for 1 hour with a blocking buffer (5% bovine serum albumin (BSA) tris-buffered physiological saline (TBST) containing 0.05% tween-20), followed by incubation overnight at 4° C. in a blocking buffer containing a primary antibody (rabbit anti-TrkB antibody, 1:1,000 dilution, Cat#4603; rabbit anti-phosphorylated Trk antibody, 1:1,000 dilution, Cat#9141; mouse anti-pan-Akt antibody, 1:2,000 dilution, Cat#2920; rabbit anti-phosphorylated Akt (S473) antibody, 1:2,000 dilution, Cat#4060; rabbit anti-Erk½ antibody, 1:2,000 dilution, Cat#4695; mouse anti-phosphorylated Erk½ antibody, 1:2,000 dilution, Cat#9106 (Cell Signaling Technology)). After washing with TBST for 10 minutes four times, the membrane was incubated with a secondary antibody (peroxidase-conjugated goat anti-rabbit IgG antibody, 1:10,000 dilution, Cat#111-035-003 (Jackson Immuno Research); peroxidase-conjugated sheep anti-mouse IgG antibody, 1:10,000 dilution, Cat#NA9310 (GE Healthcare)) for one hour at room temperature.
Finally, after the resulting membrane was washed with TBST, an immune-positive bands were detected by a chemiluminescence method using a Luminata Crescendo HPR substrate (Merck Millipore). The relative phosphorylation level of each kinase was calculated as a ratio of phosphorylated kinase/all kinases. […]

Arc = assay: qRT-PCR of Arc mRNA in primary cortical neurons; format: cell-based; conditions: 1 nM, one hour, primary cortical neurons (DIV6); p<0.01
Method: (§2) The total RNA was quantitatively and qualitatively verified by a NanoDrop spectrometer (Thermo Fisher Scientific) and electrophoresis in a formaldehyde gel.
(§3) Next, 500 ng of the total RNA was reverse-transcribed using Super Script II (Thermo Fisher Scientific). Quantitative PCR was carried out using a SYBR Green real-time PCR system by the previously reported method (Akashi, M.; Takumi, T., The orphan nuclear receptor RORalpha regulates circadian transcription of the mammalian core-clock Bmal1. Nat Struct Mol Biol 2005, 12 (5), 441-8.). A Gapdh gene was used as an internal control. The following primer sequences were respectively used: Gapdh (Forward: 5′-[…]-3′ and reverse: 5′-[…]-3′) (represented by SEQ ID NOS: 14 and 15, respectively), c-fos (Forward: 5′-[…]-3′ and reverse: 5′-[…]-3′) (represented by SEQ ID NOS: 16 and 17, respectively), and Arc (Forward: 5′-[…]-3′ and reverse: 5′-[…]-3′)(represented by SEQ ID NOS: 18 and 19, respectively).

[3] = target: extracellular domain of hTrkA (Homo sapiens, UniProt P04629); assay: SPR binding kinetics (Biacore T200), hTrkA; design: the extracellular domain of hTrkA, hTrkC, and hTrkB; conditions: 1:1 binding model
Method: (§4) With respect to the binding kinetics (binding affinity (dissociation constant) KD) of the cyclic peptides towards the extracellular domain of hTrkA, hTrkC, and hTrkB (which will hereinafter be called “hTrkA-C proteins”, collectively) immobilized on a sensor chip via a His6-tag, quantitative measurements making use of surface plasmon resonance (SPR) were carried out to evaluate the binding intensity and selectivity of the cyclic peptide to hTrkB, compared with that to hTrkA and hTrkC.
(§5) The binding kinetics of each peptide towards the hTrkA-C proteins were determined using Biacore T200 (GE Healthcare). The buffer used was HBS-P+ (10 mM HEPES, 150 mM NaCl, and 0.05 vol% surfactant P20, pH 7.4) containing 0.1 vol% DMSO and 1 mM b-dodecyl-maltoside. 100 nM hTrkA-C proteins were immobilized on a Ni^2+ treated NTA chip in accordance with the manufacturer’s instructions (baseline response 1000 to 3000 refraction units). Peptides were injected as an analyte at a flow rate of […] and binding kinetics was modelled using a 1:1 binding model.

Akt = assay: Western blot of phosphorylated Akt (S473) in primary hippocampal neurons; format: cell-based, mouse; conditions: 1 nM, 15 minutes, primary hippocampal neurons (DIV6); p<0.01 vs DMSO
Method: as §1
(§6) The cell lysate (protein amount: 20 µg in P-TrkB, 10 µg in TrkB, and 5 µg in Akt and Erk) was separated using 8% polyacrylamide gel and transferred to a polyvinylidene difluoride membrane (Merck Millipore, Massachusetts, USA). […]
(§7) Finally, after the resulting membrane was washed with TBST, an immune-positive bands were detected by a chemiluminescence method using a Luminata Crescendo HPR substrate (Merck Millipore). The relative phosphorylation level of each kinase was calculated as a ratio of phosphorylated kinase/all kinases.

c-fos = assay: qRT-PCR of c-fos mRNA in primary cortical neurons; format: cell-based; conditions: 1 nM, one hour, primary cortical neurons (DIV6); p<0.01
Method: as §2, §3

Erk½ = assay: Western blot of phosphorylated Erk½ in primary hippocampal neurons; format: cell-based, mouse; conditions: 1 nM, 15 minutes, primary hippocampal neurons (DIV6); p<0.01 vs DMSO
Method: as §1, §6, §7

[4] = target: T2, extracellular domain of hTrkC (Homo sapiens, UniProt Q16288); assay: SPR binding kinetics (Biacore T200), hTrkC; conditions: 1:1 binding model
T2 construct: the extracellular domain of hTrkA, hTrkC, and hTrkB
Method: as §4, §5

[5] = target: T3, extracellular domain of hTrkB (Homo sapiens, UniProt Q16620); assay: SPR binding kinetics (Biacore T200), hTrkB; conditions: Monomer (cyclic peptide), 1:1 binding model, 1 to 1000 nM, read-out: binding affinity KD, TrkB
T3 construct: the extracellular domain of hTrkA, hTrkC, and hTrkB
Method: as §4, §5

TrkB = TrkB (Homo sapiens, UniProt Q16620); conditions: Non-Patent Document 3; cited from earlier work
TrkB, sequence (Q16620 32-822, species assumed): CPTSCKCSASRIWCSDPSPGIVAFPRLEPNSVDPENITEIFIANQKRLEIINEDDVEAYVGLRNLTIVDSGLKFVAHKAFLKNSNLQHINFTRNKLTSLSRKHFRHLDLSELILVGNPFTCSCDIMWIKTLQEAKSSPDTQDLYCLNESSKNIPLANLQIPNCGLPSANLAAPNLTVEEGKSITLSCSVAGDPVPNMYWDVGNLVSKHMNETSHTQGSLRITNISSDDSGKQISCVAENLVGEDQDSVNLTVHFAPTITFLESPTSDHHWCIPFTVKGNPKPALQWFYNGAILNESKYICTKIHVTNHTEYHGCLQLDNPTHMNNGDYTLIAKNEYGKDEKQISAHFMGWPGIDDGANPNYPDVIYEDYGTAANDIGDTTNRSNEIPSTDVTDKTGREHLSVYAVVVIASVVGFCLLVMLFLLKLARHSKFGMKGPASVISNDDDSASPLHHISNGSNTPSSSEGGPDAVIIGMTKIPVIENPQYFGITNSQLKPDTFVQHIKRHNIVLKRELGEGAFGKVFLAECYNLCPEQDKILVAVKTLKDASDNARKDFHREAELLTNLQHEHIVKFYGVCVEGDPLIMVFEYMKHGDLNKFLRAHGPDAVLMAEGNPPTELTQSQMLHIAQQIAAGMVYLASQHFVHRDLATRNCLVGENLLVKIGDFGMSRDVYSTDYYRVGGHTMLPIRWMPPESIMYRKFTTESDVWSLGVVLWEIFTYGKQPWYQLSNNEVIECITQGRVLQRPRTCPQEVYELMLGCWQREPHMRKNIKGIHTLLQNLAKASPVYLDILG

T1 sequence (P15209 32-821): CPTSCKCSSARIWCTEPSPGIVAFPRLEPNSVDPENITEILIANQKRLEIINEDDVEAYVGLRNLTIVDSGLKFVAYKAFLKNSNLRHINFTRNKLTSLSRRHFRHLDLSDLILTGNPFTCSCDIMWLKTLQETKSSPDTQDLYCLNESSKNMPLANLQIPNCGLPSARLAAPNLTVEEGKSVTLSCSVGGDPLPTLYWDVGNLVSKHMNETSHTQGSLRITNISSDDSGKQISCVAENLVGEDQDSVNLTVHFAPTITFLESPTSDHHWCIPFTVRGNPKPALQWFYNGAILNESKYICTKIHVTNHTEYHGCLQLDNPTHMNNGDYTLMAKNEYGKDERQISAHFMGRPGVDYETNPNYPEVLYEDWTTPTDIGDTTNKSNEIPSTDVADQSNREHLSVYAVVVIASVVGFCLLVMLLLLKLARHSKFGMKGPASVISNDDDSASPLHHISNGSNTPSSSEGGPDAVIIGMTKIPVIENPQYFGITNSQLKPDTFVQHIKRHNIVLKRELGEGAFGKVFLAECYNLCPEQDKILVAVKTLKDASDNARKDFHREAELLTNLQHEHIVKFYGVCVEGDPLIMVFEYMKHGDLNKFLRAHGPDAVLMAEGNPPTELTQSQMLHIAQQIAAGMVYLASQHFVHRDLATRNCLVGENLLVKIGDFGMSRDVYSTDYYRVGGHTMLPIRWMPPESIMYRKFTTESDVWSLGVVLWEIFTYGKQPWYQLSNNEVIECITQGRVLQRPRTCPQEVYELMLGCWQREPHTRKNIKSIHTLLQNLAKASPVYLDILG
T2 sequence (Q16288 32-429 limits assumed): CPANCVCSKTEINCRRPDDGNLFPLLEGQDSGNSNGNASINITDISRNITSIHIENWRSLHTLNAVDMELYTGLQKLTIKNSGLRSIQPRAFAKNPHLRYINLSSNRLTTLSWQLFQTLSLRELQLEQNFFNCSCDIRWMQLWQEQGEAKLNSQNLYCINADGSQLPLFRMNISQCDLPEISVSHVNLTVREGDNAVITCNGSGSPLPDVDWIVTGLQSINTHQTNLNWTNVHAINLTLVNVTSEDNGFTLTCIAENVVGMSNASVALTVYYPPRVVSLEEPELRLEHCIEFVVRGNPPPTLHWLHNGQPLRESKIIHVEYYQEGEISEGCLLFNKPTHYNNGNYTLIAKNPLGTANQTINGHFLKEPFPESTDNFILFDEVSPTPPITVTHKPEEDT

Q: What does the source list for `CC(C)C[C@@H]1NC(=O)[C@H](Cc2ccc(O)cc2)NC(=O)CSC[C@@H](C(=O)NCC(=O)N[C@@H](CO)C(=O)NCC(=O)N[C@@H](CO)C(=O)NCC(=O)N[C@@H](CO)C(=O)NCCOCCOCCOCCOCCOCCOCC(=O)NC[C@H](NC(=O)COCCOCCOCCOCCOCCOCCNC(=O)[C@H](CO)NC(=O)CNC(=O)[C@H](CO)NC(=O)CNC(=O)[C@H](CO)NC(=O)CNC(=O)[C@@H]2CSCC(=O)N[C@@H](Cc3ccc(O)cc3)C(=O)N[C@@H](CC(C)C)C(=O)N[C@@H](CCCNC(=N)N)C(=O)N3CCC[C@H]3C(=O)N[C@@H](CCCNC(=N)N)C(=O)N[C@@H](Cc3ccc(O)cc3)C(=O)N[C@@H](CCCCN)C(=O)N[C@@H](Cc3ccccc3)C(=O)N[C@@H](Cc3c[nH]c4ccccc34)C(=O)N2)C(N)=O)NC(=O)[C@H](Cc2c[nH]c3ccccc23)NC(=O)[C@H](Cc2ccccc2)NC(=O)[C@H](CCCCN)NC(=O)[C@H](Cc2ccc(O)cc2)NC(=O)[C@H](CCCNC(=N)N)NC(=O)[C@@H]2CCCN2C(=O)[C@H](CCCNC(=N)N)NC1=O` [DiTrbL3] (I: {CH2CO}-YLRPRYKFWCGSGSGS[NH(CH2CH2O)6CH2CO][Dap]-NH2 / II: {CH2CO}-YLRPRYKFWCGSGSGS[NH(CH2CH2O)6CH2CO]; amide I:18-II:C; thioether I:N-I:10, II:N-II:10)?
A: RTK phosphorylation in phospho-RTK array ([1]; 1 nM, 40 RTKs): phosphorylated only TrkB; axonal outgrowth ([2]; 10 nM, DIV0 to 3): significantly reinforced the axonal outgrowth; axonal outgrowth ([2]; 100 nM, DIV0 to 3): significantly reinforced the axonal outgrowth; axonal length of primary neurons ([2]; treated for 3 days (DIV0 to 3)): elongated; TrkB phosphorylation, dose titration (mouse TrkB; 0.2 nM, p<0.01 vs DMSO): obviously induces TrkB phosphorylation; phosphorylation of TrkB (mouse TrkB; 1 nM, 15 minutes, primary mouse hippocampal neurons (DIV6)): induced phosphorylation of TrkB; mRNA expression of Arc (Arc): significantly increased; binding affinity KD, TrkA ([3]; Homodimer (peptide complex)): N.B.; phosphorylation of Akt (Akt): drastically activated phosphorylation; also recorded: a significant difference is present in induction between DMSO and DiTrbL3; mRNA expression of c-fos (c-fos): significantly increased; phosphorylation of Erk½ (Erk½): drastically activated phosphorylation; also recorded: a significant difference is present in induction between DMSO and DiTrbL3; binding affinity KD, TrkC ([4]; Homodimer (peptide complex)): N.B.

Q: Which Kd [5] does the source give for `CC(C)C[C@@H]1NC(=O)[C@H](CCCNC(=N)N)NC(=O)[C@H](Cc2ccccc2)NC(=O)[C@H](CCCNC(=N)N)NC(=O)[C@@H]2CCCN2C(=O)[C@H]([C@@H](C)O)NC(=O)[C@H](CCC(N)=O)NC(=O)[C@H](Cc2c[nH]c3ccccc23)NC(=O)[C@H](Cc2ccccc2)NC(=O)[C@H](CCCNC(=N)N)NC(=O)[C@H](Cc2ccc(O)cc2)NC(=O)CSC[C@@H](C(=O)NCC(=O)N[C@@H](CO)C(=O)NCC(=O)N[C@@H](CO)C(=O)NCC(=O)N[C@@H](CO)C(N)=O)NC1=O` [TrbL2] ({CH2CO}-YRFWQTPRFRLCGSGSGS-NH2; thioether N-12) here?
A: 0.07 µM

Q: What about the Kd ([3]; Monomer (cyclic peptide), 1 to 1000 nM, read-out: binding affinity KD, TrkA) of the same compound?
A: 0.1 µM

Q: What about the “binding affinity KD, TrkC” value ([4]; Monomer (cyclic peptide), 1 to 1000 nM) of the same compound?
A: N.B.

Q: Which results are given for “BDNF: brain-derived neurotrophic factor, natural protein agonist of TrkB, positive control”?
A: RTK phosphorylation in phospho-RTK array ([1]; 0.1 nM, incubation for one hour as printed): caused phosphorylation of TrkB; affinity for TrkB relative to that of p75 (TrkB): at least 10 times; axonal length of primary neurons ([2]; 2 nM BDNF, DIV0 to 3): elongated; phosphorylation of Trk (mouse TrkB; 0.1 nM, 15 minutes, primary mouse hippocampal neurons (DIV6)): induced phosphorylation of Trk
